Laboratory results: paper PMC6572064, “Discovery of 2-(1-(3-(4-Chloroxyphenyl)-3-oxo- propyl)pyrrolidine-3-yl)-1H-benzo[d]imidazole-4-carboxamide: A Potent Poly(ADP-ribose) Polymerase (PARP) Inhibitor for Treatment of Cancer” (Molecules, 2019)
Like-named read-outs stand apart in the source and are kept apart here.

Tests used:
[1] = biological target: T1, PARP-1 (Homo sapiens, UniProt P09874); assay: PARP-1 inhibition assay (PARP-1 Chemiluminescent Assay Kit, BPS Bioscience); assay type: biochemical; conditions: for inhibition at 0.01 µM: 10 nM compound
T1 construct: purchased BPS Bioscience 80569
Procedure: (§1) The PARP-1 and PARP-2 inhibition assays were performed in outsourcing, by a CRO company, Shanghai Medicilon Inc. (Shanghai, China). […] Briefly, PARP-1 or PARP-2 biotinylated substrate was incubated with compounds or solvent control at varying concentrations and an assay buffer containing the PARP-1 or PARP-2 enzyme.

[2] = biological target: T2, PARP-2 (Homo sapiens, UniProt Q9UGN5); assay: PARP-2 inhibition assay (PARP-2 Chemiluminescent Assay Kit, BPS Bioscience); assay type: biochemical; conditions: for inhibition at 0.01 µM: 10 nM compound
T2 construct: purchased BPS Bioscience 80552
Procedure: as §1

[3] = tested on: MDA-MB-436 (a BRCA-1-mutated breast cancer cell line); assay: Cell proliferation assay, three-day, CellTiter-Glo, MDA-MB-436; assay type: cell-based; conditions: for inhibition at 0.00508 µM / inhibition at 0.0152 µM / inhibition at 0.0457 µM / inhibition at 0.41 µM / inhibition at 1.23 µM / inhibition at 3.7 µM / inhibition at 11.11 µM / inhibition at 33.33 µM / inhibition at 100 µM / IC50: Homo sapiens; for inhibition at 0.00508 µM: MDA-MB-436, MDA-MB-436, Conc. 0.00508 uM; for inhibition at 0.0152 µM: MDA-MB-436, MDA-MB-436, Conc. 0.0152 uM; for inhibition at 0.0457 µM: MDA-MB-436, MDA-MB-436, Conc. 0.0457 uM; for inhibition at 0.41 µM: MDA-MB-436, MDA-MB-436, Conc. 0.41 uM; for inhibition at 1.23 µM: MDA-MB-436, MDA-MB-436, Conc. 1.23 uM; for inhibition at 3.7 µM: MDA-MB-436, MDA-MB-436, Conc. 3.70 uM; for inhibition at 11.11 µM: MDA-MB-436, MDA-MB-436, Conc. 11.11 uM; for inhibition at 33.33 µM: MDA-MB-436, MDA-MB-436, Conc. 33.33 uM; for inhibition at 100 µM: MDA-MB-436, MDA-MB-436, Conc. 100.00 uM
In short: (§2)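 Cells seeded overnight in 384-well plates, then exposed to compounds (DMSO stock diluted in medium) for 72 h at 37 °C, 5% CO2. Viability read as CellTiter-Glo luminescence after 60 min at room temperature.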

[4] = tested on: CAPAN-1 (a BRCA-2-mutated pancreatic cancer cell line); assay: Cell proliferation assay, three-day, CellTiter-Glo, CAPAN-1; assay type: cell-based; conditions: for IC50 / inhibition at 0.00508 µM / inhibition at 0.0152 µM / inhibition at 0.0457 µM / inhibition at […] / inhibition at 0.41 µM / inhibition at 1.23 µM / inhibition at 3.7 µM / inhibition at 11.11 µM / inhibition at 33.33 µM / inhibition at 100 µM: Homo sapiens; for inhibition at 0.00508 µM: CAPAN-1, 0.00508 uM; for inhibition at 0.0152 µM: CAPAN-1, 0.0152 uM; for inhibition at 0.0457 µM: CAPAN-1, 0.0457 uM; for inhibition at […]: CAPAN-1, 0.14 uM; for inhibition at 0.41 µM: CAPAN-1, 0.41 uM; for inhibition at 1.23 µM: CAPAN-1, 1.23 uM; for inhibition at 3.7 µM: CAPAN-1, 3.70 uM; for inhibition at 11.11 µM: CAPAN-1, 11.11 uM; for inhibition at 33.33 µM: CAPAN-1, 33.33 uM; for inhibition at 100 µM: CAPAN-1, 100.00 uM
In short: as §2

T2 sequence (Q9UGN5 whole entry): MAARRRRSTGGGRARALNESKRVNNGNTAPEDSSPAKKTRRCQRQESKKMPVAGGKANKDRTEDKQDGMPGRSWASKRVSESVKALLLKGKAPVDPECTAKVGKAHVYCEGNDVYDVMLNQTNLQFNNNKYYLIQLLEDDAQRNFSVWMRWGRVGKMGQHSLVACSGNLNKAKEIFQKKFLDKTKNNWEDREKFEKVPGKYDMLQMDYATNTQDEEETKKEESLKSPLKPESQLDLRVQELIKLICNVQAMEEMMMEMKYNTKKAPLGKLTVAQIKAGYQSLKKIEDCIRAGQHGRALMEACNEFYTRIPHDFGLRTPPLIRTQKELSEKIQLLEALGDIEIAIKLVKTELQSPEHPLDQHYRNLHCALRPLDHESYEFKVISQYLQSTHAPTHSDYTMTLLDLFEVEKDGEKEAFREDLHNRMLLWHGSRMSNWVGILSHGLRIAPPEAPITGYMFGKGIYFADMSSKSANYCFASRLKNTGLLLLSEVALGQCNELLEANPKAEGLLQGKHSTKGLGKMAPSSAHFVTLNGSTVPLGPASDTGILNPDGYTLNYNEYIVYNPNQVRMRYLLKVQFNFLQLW
T1 sequence (P09874 whole entry): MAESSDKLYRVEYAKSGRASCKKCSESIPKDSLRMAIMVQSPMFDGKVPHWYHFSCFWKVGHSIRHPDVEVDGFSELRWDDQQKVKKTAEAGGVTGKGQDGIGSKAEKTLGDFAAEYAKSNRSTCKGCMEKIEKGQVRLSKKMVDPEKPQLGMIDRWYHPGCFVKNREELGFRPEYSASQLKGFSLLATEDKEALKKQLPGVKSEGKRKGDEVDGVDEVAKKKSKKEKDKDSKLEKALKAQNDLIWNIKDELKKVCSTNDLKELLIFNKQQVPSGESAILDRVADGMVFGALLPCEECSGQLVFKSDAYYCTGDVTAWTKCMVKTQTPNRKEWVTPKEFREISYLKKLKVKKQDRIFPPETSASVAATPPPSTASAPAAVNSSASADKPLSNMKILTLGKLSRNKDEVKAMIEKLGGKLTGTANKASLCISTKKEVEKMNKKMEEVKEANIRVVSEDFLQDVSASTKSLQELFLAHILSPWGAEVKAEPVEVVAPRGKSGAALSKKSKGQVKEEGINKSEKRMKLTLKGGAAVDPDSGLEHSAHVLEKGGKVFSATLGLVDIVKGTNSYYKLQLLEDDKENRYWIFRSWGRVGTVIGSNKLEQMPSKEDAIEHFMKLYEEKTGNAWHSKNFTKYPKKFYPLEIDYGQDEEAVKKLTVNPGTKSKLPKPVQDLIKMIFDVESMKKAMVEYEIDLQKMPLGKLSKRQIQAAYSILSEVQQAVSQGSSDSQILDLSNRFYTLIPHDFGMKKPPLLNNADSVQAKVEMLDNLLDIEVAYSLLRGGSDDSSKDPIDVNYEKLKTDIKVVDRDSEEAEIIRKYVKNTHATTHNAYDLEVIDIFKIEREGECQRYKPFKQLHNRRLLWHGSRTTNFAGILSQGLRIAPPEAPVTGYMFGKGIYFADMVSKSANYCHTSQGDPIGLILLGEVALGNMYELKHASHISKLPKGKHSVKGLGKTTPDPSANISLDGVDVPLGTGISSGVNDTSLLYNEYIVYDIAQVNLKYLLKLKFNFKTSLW

In the case of NC(=O)c1cccc2[nH]c(C3CCN(CCC(=O)c4ccc(Cl)cc4)C3)nc12 (centres unmarked) [Compound 5cj], the inhibition at 0.01 µM ([1]; supplement sheet, read-out: 10 nM inhibition% PAPR-1) is reported as 65.7%, the inhibition at 0.01 µM ([1]; read-out: PARP-1 Inhibition % (10 nM)) is reported as 65.7% and the IC50 ([1]; read-out: PARP-1 IC50) is reported as 0.0039 µM. For the same molecule, the IC50 ([1]; supplement sheet, read-out: IC50 PAPR-1) was 0.00389 µM, the inhibition at 0.01 µM ([2]; supplement sheet, read-out: 10 nM inhibition% PAPR-2) was 65.5% and the inhibition at 0.01 µM ([2]; read-out: PARP-2 Inhibition % (10 nM)) was 65.6%. For the same molecule, the IC50 ([2]; read-out: PARP-2 IC50) was 0.0042 µM, the IC50 ([2]; supplement sheet, read-out: IC50 PAPR-2) was 0.00422 µM and the inhibition at 0.00508 µM ([3]; replicate 1, read-out: Inh % 1) was -7.9%. The inhibition at 0.00508 µM ([3]; replicate 2, read-out: Inh % 2) was -1.6%, the inhibition at 0.0152 µM ([3]; replicate 1, read-out: Inh % 1) was -3% and the inhibition at 0.0152 µM ([3]; replicate 2, read-out: Inh % 2) was -9.8%. For the same molecule, the inhibition at 0.0457 µM ([3]; replicate 1, read-out: Inh % 1) was -14.2%, the inhibition at 0.0457 µM ([3]; replicate 2, read-out: Inh % 2) was -14.3% and the inhibition at 0.41 µM ([3]; replicate 1, read-out: Inh % 1) was -16.8%. The inhibition at 0.41 µM ([3]; replicate 2, read-out: Inh % 2) was -14.6%, the inhibition at 1.23 µM ([3]; replicate 1, read-out: Inh % 1) was -8.7% and the inhibition at 1.23 µM ([3]; replicate 2, read-out: Inh % 2) was -14.5%. The inhibition at 3.7 µM ([3]; replicate 1, read-out: Inh % 1) was -10.6%, the inhibition at 3.7 µM ([3]; replicate 2, read-out: Inh % 2) was -13.6% and the inhibition at 11.11 µM ([3]; replicate 1, read-out: Inh % 1) was 10.8%. For the same molecule, the inhibition at 11.11 µM ([3]; replicate 2, read-out: Inh % 2) was 8.2%, the inhibition at 33.33 µM ([3]; replicate 1, read-out: Inh % 1) was 93.8% and the inhibition at 33.33 µM ([3]; replicate 2, read-out: Inh % 2) was 82.1%. For the same molecule, the inhibition at 100 µM ([3]; replicate 1, read-out: Inh % 1) was 99.7%, the inhibition at 100 µM ([3]; replicate 2, read-out: Inh % 2) was 98.9% and the IC50 ([3]; MDA-MB-436, 72 h, CellTiter-Glo, read-out: MDA-MB-436 IC50) was 17.4 µM. For the same molecule, the IC50 ([3]; MDA-MB-436, 72 h, supplement Summary sheet, read-out: IC50) was 17.4 µM, the IC50 ([3]; MDA-MB-436, curve fit list, no unit in the cell, concentration in uM, read-out: IC50) was 17.4 µM and the LogIC50 ([3]; MDA-MB-436, curve fit on Log (uM) concentrations) was 1.241. The Bottom ([3]; MDA-MB-436, curve fit parameter (Inh %)) was -11.12, the Top ([3]; MDA-MB-436, curve fit parameter (Inh %), '= 100.0' is a constrained value) was 99.53 and the LogIC50 ([4]; CAPAN-1, curve-fit output, Log (uM)) was 1.057. It also gave an IC50 ([4]; CAPAN-1, 72 h, CellTiter-Glo, read-out: CAPAN-1 IC50) of 11.4 µM, an inhibition at 0.00508 µM ([4]; replicate 1, read-out: Inh % 1) of 9.5% and an inhibition at 0.00508 µM ([4]; replicate 2, read-out: Inh % 2) of -1.4%. For the same molecule, the inhibition at 0.0152 µM ([4]; replicate 1, read-out: Inh % 1) was 3.1%, the inhibition at 0.0152 µM ([4]; replicate 2, read-out: Inh % 2) was -2.2% and the inhibition at 0.0457 µM ([4]; replicate 1, read-out: Inh % 1) was 3.3%. For the same molecule, the inhibition at 0.0457 µM ([4]; replicate 2, read-out: Inh % 2) was 3.4%, the inhibition at […] ([4]; replicate 1, read-out: Inh % 1) was 13.7% and the inhibition at […] ([4]; replicate 2, read-out: Inh % 2) was -6.2%. For the same molecule, the inhibition at 0.41 µM ([4]; replicate 1, read-out: Inh % 1) was 2.9%, the inhibition at 0.41 µM ([4]; replicate 2, read-out: Inh % 2) was 7.7% and the inhibition at 1.23 µM ([4]; replicate 1, read-out: Inh % 1) was -2.6%. It also gave an inhibition at 1.23 µM ([4]; replicate 2, read-out: Inh % 2) of 0.5%, an inhibition at 3.7 µM ([4]; replicate 1, read-out: Inh % 1) of 7.7% and an inhibition at 3.7 µM ([4]; replicate 2, read-out: Inh % 2) of 2.2%. It also gave an inhibition at 11.11 µM ([4]; replicate 1, read-out: Inh % 1) of 54.1%, an inhibition at 11.11 µM ([4]; replicate 2, read-out: Inh % 2) of 45.1% and an inhibition at 33.33 µM ([4]; replicate 1, read-out: Inh % 1) of 97.9%. For the same molecule, the inhibition at 33.33 µM ([4]; replicate 2, read-out: Inh % 2) was 96.8%, the inhibition at 100 µM ([4]; replicate 1, read-out: Inh % 1) was 99.6% and the inhibition at 100 µM ([4]; replicate 2, read-out: Inh % 2) was 98.9%. It also gave an IC50 ([4]; CAPAN-1, 72 h, supplement Summary sheet, read-out: IC50) of 11.4 µM and an IC50 ([4]; CAPAN-1, curve-fit output, concentrations in uM, read-out: IC50) of 11.4 µM.
